# In patent US20170190671A1, “BIS(ARYL)CATECHOL DERIVATIVES AS HERBICIDES” (E I DU PONT DE NEMOURS AND COMPANY, priority 2014, published 2017):
# How the values were obtained:
# Format in all cases: in vivo
# [1] = test system: Italian ryegrass (Lolium multiflorum); assay: Test A preemergence
# Excerpt: (§1) Seeds of plant species selected from barnyardgrass (Echinochloa crus-galli), kochia (Kochia scoparia), ragweed (common ragweed, Ambrosia elatior), Italian ryegrass (Lolium multiflorum), large (Lg) crabgrass (Digitaria sanguinalis), giant foxtail (Setaria faberii), morningglory (Ipomoea spp.), pigweed (Amaranthus retroflexus), velvetleaf (Abutilon theophrasti), wheat (Triticum aestivum), and corn (Zea mays) were planted into a blend of loam soil and sand and treated preemergence with a directed soil spray using test chemicals formulated in a non-phytotoxic solvent mixture which included a surfactant.
# (§2) At the same time, plants selected from these crop and weed species and also blackgrass (Alopecurus myosuroides), and galium (catchweed bedstraw, Galium aparine) were planted in pots containing the same blend of loam soil and sand and treated with postemergence applications of test chemicals formulated in the same manner. Plants ranged in height from 2 to 10 cm and were in the one- to two-leaf stage for the postemergence treatment. Treated plants and untreated controls were maintained in a greenhouse for approximately 10 days, after which time all treated plants were compared to untreated controls and visually evaluated for injury. Plant response ratings, summarized in Table A, are based on a 0 to 100 scale where 0 is no effect and 100 is complete control. A dash (-) response means no test result.
# [2] = test system: giant foxtail (Setaria faberii); assay: Test A preemergence
# Excerpt: as §1, §2
# kochia (Kochia scoparia) [3] = assay: Test A preemergence
# Excerpt: as §1, §2
# [4] = test system: barnyardgrass (Echinochloa crus-galli); assay: Test A preemergence
# Excerpt: as §1, §2
# [5] = test system: ragweed (common ragweed, Ambrosia elatior); assay: Test A preemergence
# Excerpt: as §1, §2
# [6] = test system: pigweed (Amaranthus retroflexus); assay: Test A preemergence
# Excerpt: as §1, §2
# [7] = test system: galium (catchweed bedstraw, Galium aparine); assay: Test A postemergence; settings: 0 to 100 scale
# Excerpt: as §1, §2
# [8] = test system: Italian ryegrass (Lolium multiflorum); assay: Test A postemergence; settings: 0 to 100 scale
# Excerpt: as §1, §2
# [9] = test system: blackgrass (Alopecurus myosuroides); assay: Test A postemergence; settings: 0 to 100 scale
# Excerpt: as §1, §2
# [10] = test system: giant foxtail (Setaria faberii); assay: Test A postemergence; settings: 0 to 100 scale
# Excerpt: as §1, §2
# kochia (Kochia scoparia) [11] = assay: Test A postemergence; settings: 0 to 100 scale
# Excerpt: as §1, §2
# [12] = test system: barnyardgrass (Echinochloa crus-galli); assay: Test A postemergence; settings: 0 to 100 scale
# Excerpt: as §1, §2
# [13] = test system: wheat (Triticum aestivum); assay: Test A postemergence; settings: 0 to 100 scale
# Excerpt: as §1, §2
# corn (Zea mays) = assay: Test A postemergence; settings: 0 to 100 scale
# Excerpt: as §1, §2
# [14] = test system: ragweed (common ragweed, Ambrosia elatior); assay: Test A postemergence; settings: 0 to 100 scale
# Excerpt: as §1, §2
# [15] = test system: pigweed (Amaranthus retroflexus); assay: Test A postemergence; settings: 0 to 100 scale
# Excerpt: as §1, §2
# [16] = 31 g ai/ha, 0 to 100 scale (0 no effect, 100 complete control)
smiles,measurement,setting,value
FC(F)(F)c1cnc(Oc2c(Br)cccc2Oc2ncc(Cl)cn2)s1 [Compound 6],"Ryegrass, Italian plant response rating",[1]; [16],0
same,"Plant response rating, Ryegrass, Italian","[1]; 125 g ai/ha, 0 to 100 scale",20
same,"Foxtail, Giant plant response rating",[2]; [16],60
same,"Plant response rating, Foxtail, Giant","[2]; 125 g ai/ha, 0 to 100 scale",100
same,Kochia plant response rating,kochia (Kochia scoparia) [3]; [16],30
same,"Plant response rating, Kochia","kochia (Kochia scoparia) [3]; 125 g ai/ha, 0 to 100 scale",80
same,Barnyardgrass plant response rating,[4]; [16],20
same,"Plant response rating, Barnyardgrass","[4]; 125 g ai/ha, 0 to 100 scale",70
same,Ragweed plant response rating,[5]; [16],0
same,"Plant response rating, Ragweed","[5]; 125 g ai/ha, 0 to 100 scale",0
same,Pigweed plant response rating,[6]; [16],30
same,"Plant response rating, Pigweed","[6]; 125 g ai/ha, 0 to 100 scale",90
same,"Plant response rating, Galium",[7]; 31 g ai/ha,70
same,"Plant response rating, Galium",[7]; 125 g ai/ha,100
same,"Plant response rating, Ryegrass, Italian",[8]; 31 g ai/ha,0
same,"Plant response rating, Ryegrass, Italian",[8]; 125 g ai/ha,50
same,"Plant response rating, Blackgrass",[9]; 31 g ai/ha,10
same,"Plant response rating, Blackgrass",[9]; 125 g ai/ha,40
same,"Plant response rating, Foxtail, Giant",[10]; 31 g ai/ha,10
same,"Plant response rating, Foxtail, Giant",[10]; 125 g ai/ha,60
same,"Plant response rating, Kochia",kochia (Kochia scoparia) [11]; 31 g ai/ha,70
same,"Plant response rating, Kochia",kochia (Kochia scoparia) [11]; 125 g ai/ha,100
same,"Plant response rating, Barnyardgrass",[12]; 31 g ai/ha,10
same,"Plant response rating, Barnyardgrass",[12]; 125 g ai/ha,100
same,"Plant response rating, Wheat",[13]; 31 g ai/ha,0
same,"Plant response rating, Wheat",[13]; 125 g ai/ha,10
same,"Plant response rating, Corn",corn (Zea mays); 31 g ai/ha,0
same,"Plant response rating, Corn",corn (Zea mays); 125 g ai/ha,10
same,"Plant response rating, Ragweed",[14]; 31 g ai/ha,0
same,"Plant response rating, Ragweed",[14]; 125 g ai/ha,20
same,"Plant response rating, Pigweed",[15]; 31 g ai/ha,50
same,"Plant response rating, Pigweed",[15]; 125 g ai/ha,90
